Measured values from patent US20200308165A1, “Compounds as Ras Inhibitors and Use Thereof” (D.E. Shaw Research, LLC, priority 2017, published 2020).

How the values were obtained:
KRAS4B (wild type) = molecular target: T1, KRAS4B (wild type) (Homo sapiens, UniProt P01116); assay: K-Ras Nucleotide Exchange Assay-384 (SOS Exchange Assay by Cytoskeleton, GTPx_Cyt_IC50); assay type: biochemical; conditions: 1 μM KRAS4B, 0.05 μM SOS1, 1.5 μM mant-GDP
T1 construct: purchased Cytoskeleton CS-RS03 (K-Ras4B); CS-SOS1-A (SOS1)
Method: Example 16. Evaluation of Biological Activities: K-Ras Nucleotide Exchange Assay-384 (SOS Exchange Assay by Cytoskeleton (GTPx_Cyt_IC50))
This assay is used to evaluate inhibitors of K-ras, by monitoring the inhibition of nucleotide exchange over time, in the presence of the protein SOS.
384-well black, untreated plates (Corning 3820 with NBS or 3821 untreated) were used. K-Ras4B Protein was used, which is wild-type (Cytoskeleton #CS-RS03) with a concnetration of 5 mg/ml, or 200 μM. Human SOS1 Protein, Exchange Domain 564-1049 (Cytoskeleton # CS-SOS1-A) was used in a concentration of 3.03 mg/ml or 50 μM. Mant-GDP triethylammonium salt solution was purchased from Sigma (catalog No. 69244). 1M stock solution of Hepes was purchased from Sigma (catalog No. H9897). 1M stock solution of MgCl2 was purchased from Sigma (catalog No. M4880). CHAPS, 3% was purchased from Sigma (catalog No. C5070). Nonidet P40 was purchased from Sigma. KOH pellets were purchased from Sigma.
K-ras buffer containing 40 mM Hepes, 10 mM MgCl2, 0.05% CHAPS, 0.01% NP40 with a pH 7.5 was prepared as follows: to a Buffer base containing 4 ml 1M Hepes, 1 ml MgCl2,
93.3 ml d-H2O, pH 7.5 (with KOH pellets), 1.7 ml 3% CHAPS was added, followed by the addition of 1 ml 1% NP40.
Final Conditions of the method included 1 μM KRAS4B (wild type), 0.05 μM SOS1, 1.5 μM mant-GDP. Reagent Preparation included: thawing aliquots of KRAS, SOS, and mant-GDP; preparing 3x KRAS (3 uM) in assay buffer; preparing 3x SOS/mant-GDP (150 nM/4.5 uM) in assay buffer; and preparing 3x compounds in assay buffer.
Assay Procedure (1536) used 3.3 μl, 3x Kras, 3.3 μl 3x compound with preincubate 0 hour, and […] 3x SOS/mant-GDP. A kinetic read measuring fluorescence at 360_450 was performed for 30 min at 30 second intervals.
Reference compound SCH 54292 (reversible inhibitor) at about 100 μM was used with no preincubation. Reagents were only stable for 45 min on ice, and therefore were prepared fresh before each assay. Partial plates (up to 9 columns) were run at a time to minimize effects due to the amount of time it takes to read a whole plate. SOS/mant-GDP were added with an automated pipettor to initiate all reactions at the same time. Assay was typically performed at 0.5% solution in DMSO (compounds prepared in 1.5% DMSO initially).
Clariostar Settings were as follows. Test Name was Kras Kinetic 360-450. Basic settings of the test included Measurement type as Fluorescence (FI), and Microplate name as Corning 3820. Plate mode settings included 61 cycles, 30 second cycle time, and 10 flashes per well. Optic settings were as follows. Excitation wavelength was 360 nm. Emission wavelength was 450 nM. Excitation bandwidth was 12 nm. Emission bandwidth was 12 nm. Dichroic filter 405 was used. D6 Well(s) was used for gain adjustment. No shaking was used. General settings were as follows. Top optic was used. Settling time was 0.1 second. Reading direction was bidirectional, horizontal left to right, and bottom to top. The target temperature was 25° C.

Ras protein = Ras protein (Homo sapiens, UniProt P01116); assay: GDPx_Icagen_IC50: SOS1-mediated guanine nucleotide exchange rate of Ras (mant-GDP); assay type: biochemical; conditions: SOS1-initiated exchange
Text: (§1) In some embodiments, the IC50 assay measures the reduction effect of a given compound on the guanine nucleotide-echange rate of Ras protein in the presence of guanine nucleotide exchange protein SOS1, which is a Ras activator. In the assay GDP-loaded Ras was first prepared in a buffer containing the compound at certain concentration and fluorescent guanine nucleotide (mant-GDP (used in Icagene assay) or mant-GTP (used in other IC50 assays). The guanine nucleotide exchange was initiated by the addition of the SOS1 and its rate was reflected in the rate of fluorescence change as a function of time, which was monitored by a reader. The experiment was repeated at different compound concentrations and the IC50 of the compound was defined as the compound concentration at which half of its maximal reduction effect on the guanine nucleotide exchange rate is achieved. In other embodiments, other Ras activator proteins may be used. Non-limiting examples of other Ras activator proteins include RasGRP (Ras guanyl-releasing protein).
Example 17. Evaluation of Biological Activities: GDPx_Icagen_ICso
as §1, with “The IC50” for “In some embodiments, the IC50”, “guanine nucleotide-exchange” for “guanine nucleotide-echange”, “Ras is” for “Ras was”, “nucleotide (mant-GDP).” for “nucleotide (mant-GDP (used in Icagene assay) or mant-GTP (used in other IC50 assays).”, “achieved.” for “achieved. In other embodiments, other Ras activator proteins may be used. Non-limiting examples of other Ras activator proteins include RasGRP (Ras guanyl-releasing protein).”

Chain of Ras protein (P01116 1-188 isoform P01116-2): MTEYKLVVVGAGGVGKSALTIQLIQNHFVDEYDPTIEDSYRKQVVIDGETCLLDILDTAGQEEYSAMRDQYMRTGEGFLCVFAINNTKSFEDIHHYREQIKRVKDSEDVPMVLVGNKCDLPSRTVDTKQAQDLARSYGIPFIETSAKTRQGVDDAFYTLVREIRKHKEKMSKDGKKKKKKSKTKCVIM
T1 sequence (P01116 1-188 isoform P01116-2): as above

Compound | IC50 (KRAS4B (wild type)) | IC50 (Ras protein)
Cc1csc(SCc2cc(=O)n(-c3nc4ccccc4[nH]3)[nH]2)n1 [Compound 152, 2-(1H-benzo[d]imidazol-2-yl)-5-(((4-methylthiazol-2-yl)thio)methyl)-1,2-dihydro-3H-pyrazol-3-one] | 610 nM | 600 nM
O=c1cc(CSc2nnc(-c3ccccc3)o2)[nH]n1-c1nc2ccccc2[nH]1 [Compound 153, 2-(1H-benzo[d]imidazol-2-yl)-5-(((5-phenyl-1,3,4-oxadiazol-2-yl)thio)methyl)-1,2-dihydro-3H-pyrazol-3-one] | 800 nM | 2000 nM
O=c1cc(CSc2nc3cc(Cl)ccc3s2)[nH]n1-c1nc2ccccc2[nH]1 [Compound 154, 2-(1H-benzo[d]imidazol-2-yl)-5-(((5-chlorobenzo[d]thiazol-2-yl)thio)methyl)-1,2-dihydro-3H-pyrazol-3-one] | 1300 nM | 300 nM
O=c1cc(CSc2ncccn2)[nH]n1-c1nc2ccccc2[nH]1 [Compound 156, 2-(1H-benzo[d]imidazol-2-yl)-5-((pyrimidin-2-ylthio)methyl)-1,2-dihydro-3H-pyrazol-3-one] | 7000 nM | 3000 nM
O=c1cc(CSc2ccc(Br)cn2)[nH]n1-c1nc2ccccc2[nH]1 [Compound 158, 2-(1H-benzo[d]imidazol-2-yl)-5-(((5-bromopyridin-2-yl)thio)methyl)-1,2-dihydro-3H-pyrazol-3-one] | 530 nM | 200 nM
NC(=O)c1cccc(SCc2cc(=O)n(-c3nc4ccccc4[nH]3)[nH]2)c1 [Compound 159, 3-(((1-(1H-benzo[d]imidazol-2-yl)-5-oxo-2,5-dihydro-1H-pyrazol-3-yl)methyl)thio)benzamide] | 1000 nM | 500 nM
[N-]=[N+]=NCc1ccc(SCc2cc(=O)n(-c3nc4ccccc4[nH]3)[nH]2)cc1 [Compound 162, 5-(((4-(azidomethyl)phenyl)thio)methyl)-2-(1H-benzo[d]imidazol-2-yl)-1,2-dihydro-3H-pyrazol-3-one] | 1400 nM | 100000 nM
CN1CCN(Cc2ccc(SCc3cc(=O)n(-c4nc5ccccc5[nH]4)[nH]3)cc2)CC1 [Compound 163, 2-(1H-benzo[d]imidazol-2-yl)-5-(((4-((4-methylpiperazin-1-yl)methyl)phenyl)thio)methyl)-1,2-dihydro-3H-pyrazol-3-one] | 1000 nM | 500 nM
Cc1cc(C)nc(CSCc2cc(=O)n(-c3nc4ccccc4[nH]3)[nH]2)n1 [Compound 164, 2-(1H-benzo[d]imidazol-2-yl)-5-((((4,6-dimethylpyrimidin-2-yl)methyl)thio)methyl)-1,2-dihydro-3H-pyrazol-3-one] | 630 nM | 22000 nM
Cc1cc(C)nc(SCc2cc(=O)n(-c3ccccn3)n2C)n1 [Compound 165, 5-(((4,6-dimethylpyrimidin-2-yl)thio)methyl)-1-methyl-2-(pyridin-2-yl)-1,2-dihydro-3H-pyrazol-3-one] | 300000 nM | 200000 nM

The remaining lines, values ahead:

IC50 (KRAS4B (wild type)) | IC50 (Ras protein) | Compound
331000 nM | 48800 nM | O=c1cc(CSc2ccccc2)[nH]n1-c1cnccn1 [Compound 166, 5-((phenylthio)methyl)-2-(pyrazin-2-yl)-1,2-dihydro-3H-pyrazol-3-one]
300000 nM | 200 nM | O=c1cc(CSc2ccccc2Cl)[nH]n1-c1nc2ccccc2[nH]1 [Compound 167, 2-(1H-benzo[d]imidazol-2-yl)-5-(((2-chlorophenyl)thio)methyl)-1,2-dihydro-3H-pyrazol-3-one]
7000 nM | 2300 nM | O=c1cc(CSc2ccncc2)[nH]n1-c1nc2ccccc2[nH]1 [Compound 168, 2-(1H-benzo[d]imidazol-2-yl)-5-((pyridin-4-ylthio)methyl)-1,2-dihydro-3H-pyrazol-3-one]
2600 nM | 7000 nM | Cc1cccc(-n2[nH]c(CSc3ccccc3)cc2=O)n1 [Compound 169, 2-(6-methylpyridin-2-yl)-5-((phenylthio)methyl)-1,2-dihydro-3H-pyrazol-3-one]
6100 nM | 11900 nM | Cn1c(-n2[nH]c(CSc3ccccc3)cc2=O)nc2ccccc21 [Compound 170, 2-(1-methyl-1H-benzo[d]imidazol-2-yl)-5-((phenylthio)methyl)-1,2-dihydro-3H-pyrazol-3-one]
100000 nM | 170 nM | O=c1cc(CSc2cccc(Cl)c2)[nH]n1-c1nc2ccccc2[nH]1 [Compound 171, 2-(1H-benzo[d]imidazol-2-yl)-5-(((3-chlorophenyl)thio)methyl)-1,2-dihydro-3H-pyrazol-3-one]
800 nM | 200 nM | O=c1cc(CSc2ccc(Cl)c(Cl)c2)[nH]n1-c1nc2ccccc2[nH]1 [Compound 172, 2-(1H-benzo[d]imidazol-2-yl)-5-(((3,4-dichlorophenyl)thio)methyl)-1,2-dihydro-3H-pyrazol-3-one]
100000 nM | 500 nM | N#Cc1cccc(SCc2cc(=O)n(-c3nc4ccccc4[nH]3)[nH]2)c1 [Compound 173, 3-(((1-(1H-benzo[d]imidazol-2-yl)-5-oxo-2,5-dihydro-1H-pyrazol-3-yl)methyl)thio)benzonitrile]
2700 nM | 9300 nM | Cc1ccnc(-n2[nH]c(CSc3ccccc3)cc2=O)c1 [Compound 174, 2-(4-methylpyridin-2-yl)-5-((phenylthio)methyl)-1,2-dihydro-3H-pyrazol-3-one]
300000 nM | 200 nM | O=c1cc(CSc2ccc(Cl)cc2)[nH]n1-c1nc2ccccc2[nH]1 [Compound 183, 2-(1H-benzo[d]imidazol-2-yl)-5-(((4-chlorophenyl)thio)methyl)-1,2-dihydro-3H-pyrazol-3-one]
13600 nM | 5800 nM | Cc1cc(C)nc(SCc2cc(=O)n(-c3nc4ccccc4s3)[nH]2)n1 [Compound 184, 2-(benzo[d]thiazol-2-yl)-5-(((4,6-dimethylpyrimidin-2-yl)thio)methyl)-1,2-dihydro-3H-pyrazol-3-one]
340000 nM | 5900 nM | O=c1cc(CSc2ccccn2)[nH]n1-c1nc2ccccc2s1 [Compound 185, 2-(benzo[d]thiazol-2-yl)-5-((pyridin-2-ylthio)methyl)-1,2-dihydro-3H-pyrazol-3-one]
500000 nM | 1300 nM | Cc1ccc(SCc2cc(=O)n(-c3nc4ccccc4[nH]3)[nH]2)cc1 [Compound 186, 2-(1H-benzo[d]imidazol-2-yl)-5-((p-tolylthio)methyl)-1,2-dihydro-3H-pyrazol-3-one]
